# Experiments:
# E-selectin = molecular target: T1, E-selectin (Homo sapiens, UniProt P16581); test: Compound A binding to E-selectin (KD)
# T1 sequence (P16581 22-610): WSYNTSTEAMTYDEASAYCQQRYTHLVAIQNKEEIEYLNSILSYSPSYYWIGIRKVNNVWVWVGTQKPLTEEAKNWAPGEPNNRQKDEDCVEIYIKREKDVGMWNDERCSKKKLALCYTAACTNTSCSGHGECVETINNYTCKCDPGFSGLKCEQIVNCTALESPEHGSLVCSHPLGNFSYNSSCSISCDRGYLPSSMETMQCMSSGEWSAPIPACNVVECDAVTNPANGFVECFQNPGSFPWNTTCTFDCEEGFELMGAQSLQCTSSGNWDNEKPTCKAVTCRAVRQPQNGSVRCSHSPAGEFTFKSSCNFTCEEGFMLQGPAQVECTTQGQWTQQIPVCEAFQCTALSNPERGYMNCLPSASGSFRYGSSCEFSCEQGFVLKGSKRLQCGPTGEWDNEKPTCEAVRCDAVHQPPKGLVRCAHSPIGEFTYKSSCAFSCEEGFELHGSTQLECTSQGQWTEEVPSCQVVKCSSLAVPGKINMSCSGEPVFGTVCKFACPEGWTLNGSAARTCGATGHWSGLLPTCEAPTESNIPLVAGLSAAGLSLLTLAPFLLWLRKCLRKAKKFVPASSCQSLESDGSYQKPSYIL
# [1] = tested on: PDX AML (Flt3-ITD and WT1 mutations, sorafenib-resistant); test: PDX model (Flt3-ITD and WT1 mutations, sorafenib-resistant), CyTOF after 2 days; assay type: in vivo, mice
# Procedure: To delineate the mechanism of E-selectin at the onset of drug-mediated changes in AML signaling signatures, another PDX model was employed (Flt3-ITD and WT1 mutations, sorafenib-resistant).
# PDX mice with advanced AML (more than 20% human AML cells circulation in peripheral blood) were administered vehicle control, venetoclax (25 mg/kg)/HMA (5.5 mg/kg), Compound A (200 mg/kg), or a combination therapy for 2 days. After 2 days of bolus drug administration, mice were sacrificed and subjected to CyTOF analysis (FIGS. 9A-C). Single cell proteomics analysis by CyTOF determined that combinatorial treatment of Compound A with venetoclax/HMA diminished levels of Ki67, IDU, and pRb compared to vehicle control or venetoclax/HMA alone, resulting in decreased proliferation of AML blasts.
# KG1 AML tumor cells = test: KG1 AML mouse model survival; assay type: in vivo, NSG mice; details: for median survival time (MST): Compound A 40 mg/kg i.p. qdx14, 5-azacitidine 5 mg/kg i.p. q3dx5
# Procedure: A KG1 AML mouse model was also employed to determine whether the E-selectin antagonist Compound A could enhance the anti-tumor effect of 5-azacitidine. Female NSG mice (10 per cohort, six weeks of age) received i.v. injections of 5×10^6 KG1 AML tumor cells per mouse. Beginning 7 days post injection, mice were randomized into four cohorts and treated with either saline (i.p. (intraperitoneal), qdx14 (once daily for 14 days)), Compound A (40 mg/kg i.p. qdx14), 5-azacitidine (5 mg/kg i.p. q3dx5), or a combination of Compound A and 5-azacitidine. The efficacies of the treatments on survival were determined by the Kaplan-Meier estimator and log-rank statistics were used to test for significant differences in survival (FIG. 11). The median survival time (MST) of mice treated with 5-azacitidine was 88 days and statistically different from that of mice treated with saline (MST=69.5 days) or Compound A alone (MST=69 days). […] At study conclusion, (day 104 post tumor injection) 20% of mice treated with 5-azacitidine remained alive.
# [2] = molecular target: T2, recombinant human E-selectin-Fc chimera (Homo sapiens, UniProt P16581); test: Adhesion of KG1 AML cells to E-selectin in vitro; assay type: cell-based
# T2 construct: purchased R&D Systems 724-ES
# T2 sequence (P16581 with tags, fused parts or gaps limits assumed): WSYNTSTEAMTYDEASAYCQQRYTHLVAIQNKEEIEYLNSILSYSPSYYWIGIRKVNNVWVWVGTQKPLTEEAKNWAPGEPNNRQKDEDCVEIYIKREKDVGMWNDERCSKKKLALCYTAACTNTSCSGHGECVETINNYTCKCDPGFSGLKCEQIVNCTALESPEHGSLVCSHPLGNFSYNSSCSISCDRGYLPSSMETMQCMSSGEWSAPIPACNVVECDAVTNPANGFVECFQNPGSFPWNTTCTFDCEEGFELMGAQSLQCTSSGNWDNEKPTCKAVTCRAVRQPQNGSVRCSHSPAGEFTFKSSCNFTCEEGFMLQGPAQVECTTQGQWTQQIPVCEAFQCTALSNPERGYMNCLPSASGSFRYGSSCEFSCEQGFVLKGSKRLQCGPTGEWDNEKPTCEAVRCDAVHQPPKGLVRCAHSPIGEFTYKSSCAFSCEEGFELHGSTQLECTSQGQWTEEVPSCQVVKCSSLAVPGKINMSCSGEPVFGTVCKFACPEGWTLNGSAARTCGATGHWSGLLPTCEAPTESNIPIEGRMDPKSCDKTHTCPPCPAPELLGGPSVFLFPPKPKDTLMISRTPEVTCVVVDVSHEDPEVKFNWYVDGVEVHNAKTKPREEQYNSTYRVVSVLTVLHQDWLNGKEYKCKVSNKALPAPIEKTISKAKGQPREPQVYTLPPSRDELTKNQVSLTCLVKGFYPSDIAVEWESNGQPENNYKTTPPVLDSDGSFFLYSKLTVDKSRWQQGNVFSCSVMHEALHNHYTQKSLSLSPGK
# Procedure: To further explore this hypothesis, the ability of Compound A to disrupt adhesion of KG1 AML cells to E-selectin was assessed using an in vitro assay. Recombinant human E-selectin-Fc chimera was purchased from R&D Systems (724-ES). KG1 AML cell line was purchased from ATCC (CRL-8031) and cultured in RPMI-1640 medium supplemented with 10% fetal bovine serum (FBS). Costar 96-well polystyrene medium binding assay plates were purchased from Corning (9017). 5-azacitidine (5-AZA) was purchased from Sigma-Aldrich (A2386). Calcein AM was purchased from Molecular Probes (C3100MP). FITC-conjugated antibody reactive with cutaneous lymphocyte antigen (HECA-452-FITC) was purchased from BD Pharmingen (555947).
# The wells of a 96-well polystyrene plate were coated with 100 μL of 2 μg/mL recombinant human E-selectin-Fc chimera for 2 hours at 37° C., and then washed three times with Hank's Balanced Saline Solution (HBSS). KG1 cells were fluorescently labeled in culture medium with 3 μM Calcein AM for 60 minutes at 37° C., pelleted by centrifugation at 250×g for 10 minutes, then resuspended in HBSS to 2.5×10^5 cells per mL. Next, 2.5×10^4 cells were added to each well, and the cells were allowed to adhere for 45 minutes at room temperature. In some cases, cells were treated daily with 100 nM 5-azacitidine for 96 hours prior to labeling with Calcein AM and adhesion to E-selectin. Appropriate wells received 1 μL of 10 mM Compound A (final concentration in well: 100 μM) and after 30 minutes the wells were observed by fluorescence microscopy and pre-wash fluorescence measurements were taken using a FlexStation plate reader (excitation 485 nm, emission 538 nm, cutoff 530 nm). Subsequently, the wells were washed gently three times with HBSS and observations by fluorescence microscopy and fluorescence readings were repeated.
Structure (SMILES),Kd (E-selectin) [nM],"oncogenic signaling pathways MAPK, p-S6, and STAT3 ([1]; Compound A added to venetoclax/HMA)","activation of PI3K and AKT in AML blasts and BM CD31+EC cells ([1]; mouse, in vivo)","eNOS phosphorylation in EC ([1]; mouse, in vivo)",outcome of mice (KG1 AML tumor cells; All mice treated),median survival time (MST) (KG1 AML tumor cells) [days],"fluorescence units after treatment of previously attached cells ([2]; 100 μM Compound A, 30 minutes, p=0.001) [fluorescence units]",mice remaining alive at study conclusion (KG1 AML tumor cells; day 104 post tumor injection) [%],increase in adhesion to E-selectin ([2]; 100 nM 5-AZA 96 hours vs not treated) [%],fluorescence units of adhered cells ([2]; KG1 cells treated for 96 hours with 100 nM 5-AZA) [fluorescence units]
CCC1CC(C(=O)NCCNC(=O)CCOCCOCCOCCOCCOCCOCCOCCOCCOCCOCCOCCOC)C[C@@H](O[C@@H]2OC(CO)[C@H](O)C(O[C@@H](CC3CCCCC3)C(=O)O)C2NC(C)=O)[C@@H]1OC1O[C@@H](C)[C@H](O)C(O)[C@@H]1O (some centres unmarked) [Compound A],~450,inhibited,reduced,decreased,succumbed to progressive tumor growth,69,55.2,–,–,–
Nc1ncn([C@@H]2O[C@H](CO)[C@@H](O)[C@H]2O)c(=O)n1 [5-azacitidine],–,–,–,–,–,88,–,20,57,560.6
